According to patent US9988445B2, “Method of treatment of pain by administration of a CCL17 specific antibody” (The University of Melbourne, priority 2013, dated 2018):
Entries after “also recorded” stand apart in the source; their conditions may differ.

B1: CCL17: chemokine (C-C motif)17, also known as thymus- and activation-regulated chemokine (protein, UniProt Q92583 24-94, looked up)
C-C motif chemokine 17: ARGTNVGRECCLEYFKGAIPLRKLKTWYQTSEDCSRDAIVFVTVQGRAICSDPNNKRVKNAVKYLQSLERS

What was measured:
mice [1] = test: GM-CSF given intraplantarly, pain development (Incapacitance Tester); type: in vivo; details: GM-CSF 20 ng i.pl., four hours, vs. saline
Protocol: Mice were treated with a monoclonal antibody (mAb) to CCL17 (300 μg) or with an isotype control mAb (300 μg) at the same time as being given GM-CSF and pain was measured at four hours later.
(§1) An Incapacitance Tester (Dual Weight Averager) is used to automatically and reproducibly assess the analgesic potency by measuring the weight distribution on the two hind paws.
(§2) Weight placed on each hind limb was measured over a 3 second period. 3 separate measurements taken per mouse for each time point then averaged. Results are expressed as injected limb/control limb×100. Thus a value of 100 means that equal weight is being placed on the right and the left limb. A value below 100 means less weight is being placed on the injected limb (left) compared with the control limb (right).

mice [2] = test: CCL17 given intraplantarly, pain development (Incapacitance Tester); type: in vivo; details: CCL17 50 ng i.pl., 6 hours, p<0.05 vs. saline
Protocol: as §1, §2
Pain is identified as a decrease in the ratio of weight distribution between the CCL17-injected and saline-injected paw where a percentage of less than 95 indicates pain development (see Example 1 above). Thus, CCL17 can induce pain.

| Molecule | pain development after i.pl. injection in the footpad (mice [1]) | pain development (ratio of weight distribution between CCL17-injected and saline-injected paw; less than 95 indicates pain) (mice [2]) |
| --- | --- | --- |
| GM-CSF: proinflammatory cytokine GM-CSF | develop pain |  |
| B1 |  | develop pain; also recorded: induces pain |
